# Experimental data from publication PMC11207571, “Applicability of MDR1 Overexpressing Abcb1KO-MDCKII Cell Lines for Investigating In Vitro Species Differences and Brain Penetration Prediction” (Pharmaceutics, 2024).
# How the values were obtained:
# human MDR1 [1] = biological target: T1, human MDR1 (Homo sapiens, UniProt P08183); assay: Bidirectional transport assay, efflux ratio in Abcb1KO-MDCKII hMDR1 cells; details: for efflux ratio at 120 min, 1 µM: human, MDCK-MDR1, pH 7.4; for CNS penetration classification based on hMDR1 ER alone: ER cut-off 2, in vivo rodent Kp,uu,brain cut-off 0.3
# T1 sequence (P08183 whole entry): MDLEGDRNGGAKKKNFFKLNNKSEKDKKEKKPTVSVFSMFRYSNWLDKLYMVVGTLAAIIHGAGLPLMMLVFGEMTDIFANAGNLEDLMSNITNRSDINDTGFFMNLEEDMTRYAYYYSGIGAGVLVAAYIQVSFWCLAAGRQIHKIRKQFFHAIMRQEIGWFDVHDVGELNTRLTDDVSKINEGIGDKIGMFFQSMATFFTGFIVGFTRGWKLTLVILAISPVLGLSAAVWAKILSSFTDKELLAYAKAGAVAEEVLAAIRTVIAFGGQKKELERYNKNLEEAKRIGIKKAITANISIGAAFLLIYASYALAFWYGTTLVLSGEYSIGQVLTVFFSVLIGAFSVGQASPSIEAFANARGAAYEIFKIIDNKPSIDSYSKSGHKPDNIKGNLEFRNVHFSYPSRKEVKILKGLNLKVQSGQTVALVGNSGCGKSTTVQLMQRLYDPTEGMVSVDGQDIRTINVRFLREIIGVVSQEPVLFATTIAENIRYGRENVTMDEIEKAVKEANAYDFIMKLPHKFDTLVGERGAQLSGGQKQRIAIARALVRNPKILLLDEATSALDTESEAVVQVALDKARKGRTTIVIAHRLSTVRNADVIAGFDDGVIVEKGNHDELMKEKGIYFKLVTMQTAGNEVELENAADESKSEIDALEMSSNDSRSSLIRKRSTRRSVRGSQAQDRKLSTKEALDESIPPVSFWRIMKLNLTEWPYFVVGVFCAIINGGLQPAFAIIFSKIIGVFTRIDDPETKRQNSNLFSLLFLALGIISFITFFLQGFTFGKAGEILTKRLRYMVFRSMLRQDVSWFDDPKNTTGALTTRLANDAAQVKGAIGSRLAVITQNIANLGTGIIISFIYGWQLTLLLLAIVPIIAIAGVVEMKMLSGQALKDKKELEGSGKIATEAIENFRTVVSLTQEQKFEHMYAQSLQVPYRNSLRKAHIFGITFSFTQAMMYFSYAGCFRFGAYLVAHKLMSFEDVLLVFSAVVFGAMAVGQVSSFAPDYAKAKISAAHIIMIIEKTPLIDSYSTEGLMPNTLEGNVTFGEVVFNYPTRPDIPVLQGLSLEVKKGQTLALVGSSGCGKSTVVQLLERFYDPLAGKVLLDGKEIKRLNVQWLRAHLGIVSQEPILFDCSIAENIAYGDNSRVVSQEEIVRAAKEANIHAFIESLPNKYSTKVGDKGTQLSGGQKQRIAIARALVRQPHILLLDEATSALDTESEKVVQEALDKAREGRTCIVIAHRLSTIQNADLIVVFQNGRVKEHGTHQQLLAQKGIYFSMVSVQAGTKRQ
# Method in brief: (§1)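 Pooled samples, each with three to four analytes, were run by HPLC with 0.1% formic acid in both water and acetonitrile. Detection used selected reaction monitoring with compound-optimized transitions.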
# rat Mdr1a [2] = biological target: T2, rat Mdr1a (Rattus norvegicus, UniProt Q6PSM0); assay: Inhibition of 3H-digoxin or 3H-quinidine bidirectional transport in rMDR1 cells; format: cell-based; parameters: rat Mdr1a (NM_133401.1); expressed in transfected cells; host or cells: Abcb1KO-MDCKII (canine kidney, endogenous Abcb1 knocked out), transduced, single-cell clone; details: IC50 from ER
# T2 sequence (Q6PSM0 1-1272): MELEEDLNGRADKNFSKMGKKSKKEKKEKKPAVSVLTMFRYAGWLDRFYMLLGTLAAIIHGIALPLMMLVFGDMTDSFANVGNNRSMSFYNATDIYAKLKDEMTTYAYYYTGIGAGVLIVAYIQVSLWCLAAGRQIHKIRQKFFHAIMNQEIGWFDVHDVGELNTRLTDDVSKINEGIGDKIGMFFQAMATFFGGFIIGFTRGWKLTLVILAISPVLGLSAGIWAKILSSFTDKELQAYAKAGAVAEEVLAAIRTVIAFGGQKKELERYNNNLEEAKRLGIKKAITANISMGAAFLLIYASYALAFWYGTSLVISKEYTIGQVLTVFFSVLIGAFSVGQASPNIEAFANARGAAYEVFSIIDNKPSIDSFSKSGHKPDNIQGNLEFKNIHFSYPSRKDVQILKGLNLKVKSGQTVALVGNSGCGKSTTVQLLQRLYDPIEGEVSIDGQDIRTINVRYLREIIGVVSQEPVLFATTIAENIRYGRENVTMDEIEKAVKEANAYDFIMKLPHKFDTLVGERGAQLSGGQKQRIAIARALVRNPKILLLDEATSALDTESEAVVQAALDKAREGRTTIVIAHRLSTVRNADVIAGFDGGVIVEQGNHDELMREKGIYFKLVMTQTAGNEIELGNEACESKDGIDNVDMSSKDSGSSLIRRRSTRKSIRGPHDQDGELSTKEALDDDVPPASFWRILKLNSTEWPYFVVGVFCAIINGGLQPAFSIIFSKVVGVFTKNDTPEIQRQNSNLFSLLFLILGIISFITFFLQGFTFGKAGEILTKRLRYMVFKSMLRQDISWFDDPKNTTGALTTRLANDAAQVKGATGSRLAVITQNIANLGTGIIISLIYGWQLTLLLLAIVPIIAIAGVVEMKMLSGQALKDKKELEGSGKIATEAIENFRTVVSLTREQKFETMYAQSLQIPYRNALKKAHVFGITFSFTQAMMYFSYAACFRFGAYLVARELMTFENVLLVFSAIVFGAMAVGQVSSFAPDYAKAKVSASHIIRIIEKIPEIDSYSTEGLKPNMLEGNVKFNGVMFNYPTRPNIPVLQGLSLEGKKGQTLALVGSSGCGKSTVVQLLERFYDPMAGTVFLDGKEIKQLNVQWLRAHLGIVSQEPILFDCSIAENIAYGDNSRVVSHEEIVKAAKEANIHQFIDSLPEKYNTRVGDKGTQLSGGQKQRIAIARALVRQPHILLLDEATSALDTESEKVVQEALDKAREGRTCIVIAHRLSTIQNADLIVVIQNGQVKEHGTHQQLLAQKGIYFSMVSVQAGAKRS
# cynomolgus monkey Mdr1 [3] = biological target: T3, cynomolgus monkey Mdr1 (Macaca fascicularis, UniProt Q8HZQ6); assay: Inhibition of 3H-digoxin or 3H-quinidine bidirectional transport in cyMDR1 cells; details: Inhibition of quinidine transport IC50±SD, cyMDR1, probe 3H-quinidine 0.1 µM, 60 min; IC50 from ER
# T3 sequence (Q8HZQ6 1-1283): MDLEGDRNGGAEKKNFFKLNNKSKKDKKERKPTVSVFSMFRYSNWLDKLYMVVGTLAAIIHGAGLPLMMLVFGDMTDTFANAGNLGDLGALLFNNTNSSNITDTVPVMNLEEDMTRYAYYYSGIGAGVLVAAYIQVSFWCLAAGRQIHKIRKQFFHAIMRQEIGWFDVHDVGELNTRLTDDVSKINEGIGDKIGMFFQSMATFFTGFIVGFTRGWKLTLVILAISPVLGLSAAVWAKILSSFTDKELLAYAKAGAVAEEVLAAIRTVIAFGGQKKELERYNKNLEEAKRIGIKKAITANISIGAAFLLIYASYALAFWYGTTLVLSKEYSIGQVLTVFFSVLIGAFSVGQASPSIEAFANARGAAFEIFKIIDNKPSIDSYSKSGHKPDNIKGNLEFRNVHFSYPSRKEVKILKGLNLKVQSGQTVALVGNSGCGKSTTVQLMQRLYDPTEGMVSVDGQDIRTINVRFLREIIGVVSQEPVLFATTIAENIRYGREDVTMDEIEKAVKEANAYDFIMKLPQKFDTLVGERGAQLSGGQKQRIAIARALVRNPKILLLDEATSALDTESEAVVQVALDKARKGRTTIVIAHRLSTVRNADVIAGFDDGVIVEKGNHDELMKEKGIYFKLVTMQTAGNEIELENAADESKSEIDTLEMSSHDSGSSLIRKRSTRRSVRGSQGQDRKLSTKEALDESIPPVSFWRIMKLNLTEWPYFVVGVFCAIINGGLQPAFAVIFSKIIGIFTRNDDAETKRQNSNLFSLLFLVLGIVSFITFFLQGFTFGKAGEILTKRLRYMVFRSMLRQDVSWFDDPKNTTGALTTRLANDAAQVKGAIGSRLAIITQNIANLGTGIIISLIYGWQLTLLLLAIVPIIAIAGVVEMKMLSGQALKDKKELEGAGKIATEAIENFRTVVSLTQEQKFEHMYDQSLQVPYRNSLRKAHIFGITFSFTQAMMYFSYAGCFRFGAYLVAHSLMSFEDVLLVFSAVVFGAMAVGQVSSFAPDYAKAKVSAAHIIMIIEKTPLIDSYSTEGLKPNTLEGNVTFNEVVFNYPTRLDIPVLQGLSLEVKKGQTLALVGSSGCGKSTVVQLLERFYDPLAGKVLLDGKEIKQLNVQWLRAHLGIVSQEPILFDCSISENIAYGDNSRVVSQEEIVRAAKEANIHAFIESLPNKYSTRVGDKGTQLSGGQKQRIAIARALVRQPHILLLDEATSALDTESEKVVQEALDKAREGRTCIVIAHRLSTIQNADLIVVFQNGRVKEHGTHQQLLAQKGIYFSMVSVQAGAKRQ
# human MDR1 [4] = biological target: T1, human MDR1; assay: Inhibition of 3H-digoxin or 3H-quinidine bidirectional transport in hMDR1 cells; details: IC50 from ER
# mouse Mdr1a [5] = biological target: T4, mouse Mdr1a (Mus musculus, UniProt P21447); assay: Inhibition of 3H-digoxin or 3H-quinidine bidirectional transport in mMDR1 cells; format: cell-based; parameters: mouse Mdr1a (NM_011076.3); expressed in transfected cells; host or cells: Abcb1KO-MDCKII (canine kidney, endogenous Abcb1 knocked out), transduced, single-cell clone; details: IC50 from ER
# T4 sequence (P21447 whole entry): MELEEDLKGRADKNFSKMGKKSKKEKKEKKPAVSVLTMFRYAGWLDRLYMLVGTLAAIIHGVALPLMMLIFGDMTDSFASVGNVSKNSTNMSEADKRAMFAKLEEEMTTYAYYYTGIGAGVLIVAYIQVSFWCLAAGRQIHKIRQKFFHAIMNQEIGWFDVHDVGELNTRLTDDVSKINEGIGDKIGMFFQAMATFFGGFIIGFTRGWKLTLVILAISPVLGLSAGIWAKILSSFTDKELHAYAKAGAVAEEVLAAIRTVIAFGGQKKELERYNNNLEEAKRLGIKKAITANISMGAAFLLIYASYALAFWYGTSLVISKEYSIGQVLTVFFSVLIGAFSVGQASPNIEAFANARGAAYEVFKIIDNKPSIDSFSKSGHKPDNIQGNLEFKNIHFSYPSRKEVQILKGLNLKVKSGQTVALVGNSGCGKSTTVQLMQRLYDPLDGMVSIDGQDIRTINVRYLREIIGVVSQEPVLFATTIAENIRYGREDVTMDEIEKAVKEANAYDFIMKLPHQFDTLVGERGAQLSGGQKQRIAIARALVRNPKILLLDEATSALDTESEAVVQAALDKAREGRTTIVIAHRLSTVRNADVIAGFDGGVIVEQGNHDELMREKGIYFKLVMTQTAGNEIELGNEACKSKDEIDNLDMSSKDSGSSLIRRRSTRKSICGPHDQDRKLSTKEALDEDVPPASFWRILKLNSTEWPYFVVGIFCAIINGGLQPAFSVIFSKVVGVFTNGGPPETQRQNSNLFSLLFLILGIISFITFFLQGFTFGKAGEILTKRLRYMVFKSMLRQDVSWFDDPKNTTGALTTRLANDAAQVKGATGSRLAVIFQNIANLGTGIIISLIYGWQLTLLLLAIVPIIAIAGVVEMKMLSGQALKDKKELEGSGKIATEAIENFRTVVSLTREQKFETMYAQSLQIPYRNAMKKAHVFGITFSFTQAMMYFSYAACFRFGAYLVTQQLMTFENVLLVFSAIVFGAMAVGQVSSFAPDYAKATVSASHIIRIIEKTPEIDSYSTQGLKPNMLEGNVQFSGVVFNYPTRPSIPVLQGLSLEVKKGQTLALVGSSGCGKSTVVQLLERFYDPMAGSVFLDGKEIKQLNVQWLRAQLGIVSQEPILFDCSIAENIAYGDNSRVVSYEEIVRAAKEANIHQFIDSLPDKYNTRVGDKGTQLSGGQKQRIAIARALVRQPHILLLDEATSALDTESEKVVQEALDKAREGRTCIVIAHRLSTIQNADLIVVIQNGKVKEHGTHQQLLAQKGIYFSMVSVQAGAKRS
# [6] = Bidirectional transport assay, efflux ratio in Abcb1KO-MDCKII-Mock control cells; details: dog, MDCK, pH 7.4
# Experimental: (§2) Eluent A consisted of 0.1% formic acid in water, eluent B consisted of 0.1% formic acid in acetonitrile. Then, 10 µL samples were injected into the HPLC-MS/MS system. Mass spectrometric detection was performed in SRM mode, and ion transitions for each analyte were optimized during method development. Samples were analyzed in pools, with each pool containing three to four analytes.
# hMDR1 and hBCRP = assay: Brain permeability classification from total ER of hMDR1 and hBCRP against in vivo rodent Kp,uu,brain
# Experimental: MDR1 and/or BCRP substrate properties were investigated by binary classification analysis on CNS+ and CNS− compounds. […] True negative (TN), where there was no efflux and the CNS+ compound crossed the BBB. […] The sensitivity and specificity of the estimation of brain penetration along with MDR1 and BCRP activity were calculated from predictive performance metrics.
# First, NET ER was calculated and used for human predictions, (2) NET ER=ER(−inh)[…]ER(+inh) where ER(−inh) is ER in the absence of inhibitor, and ER(+inh) is ER in the presence of inhibitor, for hMDR1 (ERMDR1) or hBCRP (ERBCRP).
# To identify the correlation between the in vivo rodent Kp,uu,brain and ERs, 58 compounds with known Kp,uu,brain were selected. An ER of 2 was used as a cut-off to classify MDR1 substrates and a Kp,uu,brain of 0.3 was used as a threshold for CNS penetrant compounds. The resulting graphs are thus divided into four quadrants. Brain penetration (Kp,uu,brain) was used as the logical value true condition, with compounds having Kp,uu,brain ≤ 0.3 considered positive. Q2 and Q3 comprise molecules with impaired brain penetration. […] Molecules in Q4 (true negatives, TN) can freely access the brain (Figure 2). Predictive performance metrics were calculated to show the efficacy of the established cell lines in BBB permeability classification (Table 1). Sensitivity refers to the ability of the model to correctly classify CNS-restricted molecules based on MDR1 substrate nature.
# Subsequently, for a more reliable prediction of brain penetration, data generated in the hBCRP cell line were included in the analysis. hBCRP assay conditions and evaluations were identical to that of MDR1 cell lines, which allowed proper comparisons (Figure 2E,F). Total ER was calculated by combining ERs determined in BCRP and hMDR1 cell lines based on Equation (3), with an ER cut-off of 3. […] Eventually, total ERs were also assessed with the Relative Expression Factor (REF) (Equation (4); Figure 2E,F). REF is an in vitro and in vivo correlation scaler, calculated from transporter protein abundances in brain microvessels versus overexpressing cell lines.
# cynomolgus monkey Mdr1 [7] = biological target: T3, cynomolgus monkey Mdr1; assay: cell-based
# rat Mdr1a [8] = biological target: T2, rat Mdr1a; assay: Bidirectional transport assay, efflux ratio in Abcb1KO-MDCKII rMDR1 cells; details: for efflux ratio at 120 min, 1 µM: rat, pH 7.4
# Method in brief: as §1
# cynomolgus monkey Mdr1 [9] = biological target: T3, cynomolgus monkey Mdr1; assay: Bidirectional transport assay, efflux ratio in Abcb1KO-MDCKII cyMDR1 cells; details: for efflux ratio at 120 min, 1 µM: cynomolgus monkey, pH 7.4
# Method in brief: as §1
# mouse Mdr1a [10] = biological target: T4, mouse Mdr1a; assay: Bidirectional transport assay, efflux ratio in Abcb1KO-MDCKII mMDR1 cells; details: for efflux ratio at 120 min, 1 µM: mouse, pH 7.4
# Method in brief: as §1
# human BCRP = biological target: T5, human BCRP (Homo sapiens, UniProt Q9UNQ0); assay: Bidirectional transport assay, efflux ratio in MDCKII-BCRP cells; details: for efflux ratio at 120 min, 1 µM: human, pH 7.4
# T5 sequence (Q9UNQ0 1-655): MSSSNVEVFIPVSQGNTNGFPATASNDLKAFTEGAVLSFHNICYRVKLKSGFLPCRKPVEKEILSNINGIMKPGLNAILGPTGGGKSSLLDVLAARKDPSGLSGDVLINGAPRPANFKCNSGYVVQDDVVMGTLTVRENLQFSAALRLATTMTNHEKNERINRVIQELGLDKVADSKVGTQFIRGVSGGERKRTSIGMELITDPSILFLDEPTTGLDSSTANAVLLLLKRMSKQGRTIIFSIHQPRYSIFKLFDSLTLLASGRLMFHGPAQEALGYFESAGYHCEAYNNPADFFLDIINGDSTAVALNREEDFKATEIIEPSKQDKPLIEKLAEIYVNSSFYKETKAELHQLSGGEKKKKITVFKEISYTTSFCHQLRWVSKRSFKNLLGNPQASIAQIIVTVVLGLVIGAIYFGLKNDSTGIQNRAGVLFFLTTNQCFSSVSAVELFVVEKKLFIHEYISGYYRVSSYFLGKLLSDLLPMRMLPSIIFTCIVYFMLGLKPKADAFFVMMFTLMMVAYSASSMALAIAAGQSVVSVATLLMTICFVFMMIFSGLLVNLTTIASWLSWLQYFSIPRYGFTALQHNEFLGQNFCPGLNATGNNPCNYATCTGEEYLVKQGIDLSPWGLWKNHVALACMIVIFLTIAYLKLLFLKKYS
# Method in brief: as §1
# [11] = system: Abcb1KO-MDCKII-Mock cells; assay: Bidirectional transport assay, efflux ratio in Abcb1KO-MDCKII-Mock control cells; details: 1 µM, 120 min; mean ± SD
# Experimental: as §2
# [12] = total ER cut-off 3, in vivo rodent Kp,uu,brain cut-off 0.3
Compound,"efflux ratio at 120 min, 1 µM (human MDR1 [1])","efflux ratio at 120 min, 1 µM [6]",CNS penetration classification based on total ER (hMDR1 + hBCRP) (hMDR1 and hBCRP; [12]),"efflux ratio at 120 min, 1 µM (rat Mdr1a [8])","efflux ratio at 120 min, 1 µM (cynomolgus monkey Mdr1 [9])","efflux ratio at 120 min, 1 µM (mouse Mdr1a [10])","efflux ratio at 120 min, 1 µM (human BCRP)",other results
Cc1ccc(-c2ncc(Cl)cc2-c2ccc(S(C)(=O)=O)cc2)cn1 [Etoricoxib],1.97 ± 0.21,0.9 ± 0.09,false positives,2.01 ± 0.21,1.24 ± 0.21,1.72 ± 0.23,2.35 ± 0.25,"IC50 (rat Mdr1a [2]; Inhibition of digoxin transport IC50±SD, rMDR1, probe 3H-digoxin 1 µM, 120 min): 54.6 ± 3.16 µM; IC50 (rat Mdr1a [2]; Inhibition of quinidine transport IC50±SD, rMDR1, probe 3H-quinidine 1 µM, 30 min): 18.8 ± 1.22 µM; IC50 (cynomolgus monkey Mdr1 [3]): 25.9 ± 10.5 µM; IC50 (human MDR1 [4]; Inhibition of digoxin transport IC50±SD, hMDR1, probe 3H-digoxin 1 µM, 120 min): > 100 µM; IC50 (human MDR1 [4]; Inhibition of quinidine transport IC50±SD, hMDR1, probe 3H-quinidine 1 µM, 60 min): > 100 µM; IC50 (mouse Mdr1a [5]; Inhibition of digoxin transport IC50±SD, mMDR1, probe 3H-digoxin 1 µM, 120 min): 57.8 ± 29.8 µM; IC50 (mouse Mdr1a [5]; Inhibition of quinidine transport IC50±SD, mMDR1, probe 3H-quinidine 1 µM, 60 min): 22.2 ± 5.43 µM; IC50 (cynomolgus monkey Mdr1 [7]): 15.5 ± 11.7 µM"
CNS(=O)(=O)Cc1ccc2[nH]cc(CCN(C)C)c2c1 [Sumatriptan],1.88 ± 0.12,0.93 ± 0.04,false negatives,2.02 ± 0.12,1.53 ± 0.1,1.76 ± 0.08,1.74 ± 0.24,–
CCN(CC)C(=O)/C(C#N)=C/c1cc(O)c(O)c([N+](=O)[O-])c1 [Entacapone],0.28 ± 0.02,0.32 ± 0.02,true positives,0.39 ± 0.03,0.46 ± 0.07,0.34 ± 0.05,49.4 ± 3.92,CNS penetration classification based on hMDR1 ER alone (human MDR1 [1]): false negatives
COc1ccc2c(c1)c(CC(=O)O)c(C)n2C(=O)c1ccc(Cl)cc1 [Indomethacin],0.42 ± 0.05,0.37 ± 0.07,true positives,0.4 ± 0.01,0.4 ± 0.03,0.39 ± 0.02,10.2 ± 0.71,CNS penetration classification based on hMDR1 ER alone (human MDR1 [1]): false negatives
Cc1nccn1CC1CCc2c(c3ccccc3n2C)C1=O (centres unmarked) [Ondansetron],5.24 ± 0.68,0.7 ± 0.02,false positives,7.62 ± 0.39,3.77 ± 0.64,5.33 ± 0.54,4.28 ± 0.71,–
CN(C)CCC=C1c2ccccc2CCc2ccccc21 [Amitriptylline],–,–,–,–,–,–,–,"Efflux Ratio in Abcb1KO-MDCKII hMDR1 (human MDR1 [1]; 1 µM, 120 min, mean ± SD): 1.1 ± 0.11; Efflux Ratio in Abcb1KO-MDCKII Mock [11]: 1.05 ± 0.08; Efflux Ratio in Abcb1KO-MDCKII rMDR1 (rat Mdr1a [8]; 1 µM, 120 min, mean ± SD): 0.94 ± 0.14; Efflux Ratio in Abcb1KO-MDCKII cyMDR1 (cynomolgus monkey Mdr1 [9]; 1 µM, 120 min, mean ± SD): 0.67 ± 0.08; Efflux Ratio in Abcb1KO-MDCKII mMDR1 (mouse Mdr1a [10]; 1 µM, 120 min, mean ± SD): 0.96 ± 0.12; ER in MDCKII BCRP (human BCRP; 1 µM, 120 min, mean ± SD): 0.8 ± 0.07"
CC(=O)CC(c1ccccc1)c1c(O)c2ccccc2oc1=O (centres unmarked) [Warfarin],0.56 ± 0.02,0.54 ± 0.02,–,0.6 ± 0.01,0.58 ± 0.05,0.58 ± 0.02,4.03 ± 0.29,CNS penetration classification based on total ER (hMDR1 + hBCRP) (hMDR1 and hBCRP; not told): false positives
COc1cc(Cc2cnc(N)nc2N)cc(OC)c1OC [Trimethoprim],7.29 ± 0.69,0.84 ± 0.06,false positives,13.2 ± 0.68,1.65 ± 0.1,9.04 ± 0.49,3.08 ± 0.17,–
